Earlier results, collected in patent US20230013142A1, “IODINE COMPOUNDS FOR TREATING RESPIRATORY PATHOGENS” (priority 2020, published 2023).

Legend:
parasite's acid vesicles = conditions: biologically active concentrations
a variety of viruses = conditions: on the skin
[1] = I2 and I- mixed solutions
[2] = rats, ingestion, 2-year period
viral haemagglutinin = conditions: blockade of attachment to host cell receptors
neuraminidase = conditions: virucidal mechanism of action

CCN(CC)CCCC(C)Nc1ccnc2cc(Cl)ccc12 (centres unmarked) [chloroquine]
time to increase of pH of acid vesicles (parasite's acid vesicles): 3-5 min

II [iodine]
air level considered immediately dangerous to life or health (IDLH) (air level): 2 ppm | concentration at which reports of discomfort start (NIOSH) (inhalation): 1.5 ppm | concentration at which work is difficult (inhalation): 1.5-2 ppm | concentration at which short term exposure can be irritating (as low as) (inhalation, short term exposure): 0.1 ppm | time for successful use against viruses (a variety of viruses): ≤ 5 min | concentration at which decreased virulence of viruses occurred (influenza viruses; in vitro): 0.005 ppm | concentration for complete inactivation of viruses (influenza viruses; within 1 minute in vitro): 0.1 ppm | evaporation rate relative to 26 degrees (room temperature) ([1]; at 50 degrees Centigrade): over 10 times | evaporation rate relative to 26 degrees ([1]; at 80 degrees): over 30 times

[I-].[K+] [potassium iodide]
concentration with long-term decrease in life span [2]: 100 ppm | concentration with no long-term effects [2]: 10 ppm

povidone iodine (2-Pyrrolidinone, 1-ethenyl-homopolymer) [PVP-I]
effect on viral haemagglutinin (viral haemagglutinin): inhibits | effect on neuraminidase (neuraminidase): inhibition
